Test results published in US20090111836A1, “Angular Pyranocoumarins, Process for Preparation and Uses Thereof” (CITY UNIVERSITY OF HONG KONG, priority 2007, published 2009).
Where “and” joins values, the source holds several entries; their conditions need not be identical. Equal entries are not always repeated. Entries after “also recorded” stand apart in the source; their conditions may differ.

Tests used:
Type in all cases: cell-based, human
P-gp [1] = assay: Immunoblotting analysis of P-gp expression, K562-DR; details: 4 μM, 72 hours
Protocol: (§1) Immunoblotting analysis of P-gp expression: cells were treated with 4 μM of cis-DMDCK, 4 μM of cis-DMDBK, 4 μM of trans-DMDCK, or 4 μM of trans-DMDBK for 72 hours. Treated cells were collected and mixed well in ice-cold lysis buffer (50 mM Tris pH7.4, 100 mM NaCl, 2 mM EDTA, 1% sodium deoxycholate, 0.1% SDS, 1% triton X-100, 2 mM PMSF, 1% aprotinin) for 30 minutes and then centrifuged to get the total protein. Protein concentration was determined using Bradford assay. In this experiment, 50 μg total protein was separated by 8% SDS-PAGE and electro-transferred to nitrocellulose membranes. The membrane was blocked by 5% skim milk/0.1% Tween-20/TBS (10 mM Tris pH7.5, 100 mM NaCl), and then incubated with anti-P-pg antibody for 1 hour, followed by horseradish-peroxidase-conjugated secondary antibody for another 1 hour. Protein bands were detected by the ECL method.

HepG2-DR cells [2] = assay: Cell cycle distribution by flow cytometry (doxorubicin-induced G2/M arrest), HepG2-DR; details: HepG2-DR; for Cell cycle distribution, G0/G1 / Cell cycle distribution, G2/M / Cell cycle distribution, S / Cell cycle distribution, SubG1: 48 h; for Concentration of test compound that reduced the effective doxorubicin concentration (G2/M arrest) from 50 to 1 μM: combination with doxorubicin
Protocol: 1.2 Instruments: FACSCAN flow cytometry (Becton Dickinson Immunocytometry Systems, San Jose, Calif.), the obtained data were analyzed using the software of Macintosh CellQuest.
1.3 Cell lines: HepG2, HepG2-DR.
1.4 Drug treatment: HepG2 and HepG2-DR cells were respectively treated with each of cis-DMDCK, cis-DMDBK, trans-DMDCK, trans-DMDBK and doxorubicin for 48 hours, or treated respectively with the combination of doxorubicin and one of cis-DMDCK, cis-DMDBK, trans-DMDCK, trans-DMDBK for 48 hours.
1.5 Treatment and detection of sample cells: after washed twice by ice-cold PBS, the cells were fixed with 70% ethanol at −20° C. overnight. The fixed cells were washed by PBS once and resuspended in 1 mL of PBS containing 100 μg/mL RNAase A and incubated at 37° C. for 30 minutes. Finally, propidium iodide solution (final concentration is 40 μg/mL,) was added to bind with DNA and incubated at room temperature for 5-10 minutes. Cells were analyzed by FACSCAN flow cytometry immediately.

HepG2-DR cells [3] = assay: Reversal of multidrug resistance (fold decrease of anticancer drug IC50), HepG2-DR
Protocol: Cells and cell culture: cell lines used in the experiments are human hepatoma cell line (HepG2), human leukemia cell line (K562), human epidermoid carcinoma cell line (KB-3-1) and their multidrug resistant sublines HepG2-DR, K562-DR. and KB V1. The culture conditions for all cells are following: at 37° C. and 5% CO2), KB-3-1 and KBV1 were cultured in MEM medium containing 10% fetal bovine serum and 100 U/mL antibiotics; K562, K562-DR, HepG2, HepG2-DR were cultured in RPMI-1640 medium containing 10% fetal bovine serum and 100 U/mL, antibiotics. For maintaining the phenotypic characteristics of multidrug resistance, 1.2 μM and 0.1 μM doxorubicin were respectively added into the mediums of HepG2-DR and K562-DR; 200 ng/mL vinblastine was added into the medium of KBV1. Drug resistant cells were grown in drug free medium for at least 7 days before test.
Each growth inhibition experiment must be repeated three times and results are expressed as mean±standard deviation (SD). Solvents and media were included as blank control.
In SRB assay, cells are inoculated at 5000 cells/well in a 96-well microplate and incubated overnight to let cells adhere. Drug treatment lasts for 72 hours and cells are fixed for 1 hour at 4° C. with 50 μl ice-cold 15% trichloroacetic acid and washed with triple-distilled water 5 times. Cellular protein is stained by adding 50 μl of 0.4% SRB in 1% acetic acid for 10 minutes, rinsed with 1% acetic acid 5 times and air-dried. The protein-bound dye is dissolved in 100 μl per well of 10 mM Tris base (pH 10.5). The color intensity of SRB, which positively correlate to cell number in preliminary experiments, is estimated at OD 515 nm.
1. Materials and methods: the same with I.
To evaluate the multidrug resistance reversing ability of (±)-Praeruptorin A derivatives, IC50 values of anticancer drugs in the presence and absence of cis-DMDCK, cis-DMDBK, trans-DMDCK, or trans-DMDBK at certain concentration were determined in HepG2-DR, K562-DR and KB V1 cells. The fold decrease of IC50 value of an anticancer drug in certain cell line achieved by a test compound is calculated (fold decrease=IC50 of an anti-tumor drug alone/IC50 of the anti-tumor drug in combination with the test compound) and is used for evaluating the ability of the test compound to reduce drug resistance. The larger the fold decrease value is, the stronger its ability to reverse drug resistance is. The results were average values of three repetitive tests. Verapamil (P-glycoprotein modulator) is the positive control.

P-gp [4] = assay: Immunoblotting analysis of P-gp expression, HepG2-DR; details: 4 μM, 72 hours
Protocol: as §1

KB V1 cells = assay: SRB growth inhibition assay, KB V1; details: IC50 KB V1 / IC50 KB-3-1
HepG2-DR cells [5] = assay: SRB growth inhibition assay, HepG2-DR; details: IC50 HepG2-DR / IC50 HepG2
Protocol: K562, K562-DR, HepG2, HepG2-DR were cultured in RPMI-1640 medium containing 10% fetal bovine serum and 100 U/mL, antibiotics. […] Drug test: […] New calorimetric cytotoxicity assay for anticancer-drug screening. […] Mosmann T. Rapid colorimetric assay for cellular growth and survival: application to proliferation and cytotoxicity assays. […] Gerlier D, Thomasset N. […] Each growth inhibition experiment must be repeated three times and results are expressed as mean±standard deviation (SD). Solvents and media were included as blank control. In SRB assay, cells are inoculated at 5000 cells/well in a 96-well microplate and incubated overnight to let cells adhere. Drug treatment lasts for 72 hours and cells are fixed for 1 hour at 4° C. with 50 μl ice-cold 15% trichloroacetic acid and washed with triple-distilled water 5 times. […] The protein-bound dye is dissolved in 100 μl per well of 10 mM Tris base (pH 10.5). The color intensity of SRB, which positively correlate to cell number in preliminary experiments, is estimated at OD 515 nm.

[6] = 1 μM doxorubicin + 0.5 μM test compound
[7] = 1 μM doxorubicin + 1 μM test compound
[8] = 1 μM doxorubicin + 2 μM test compound

| SMILES | Change in P-gp (MDR1) expression level (P-gp [1]) | Cell cycle distribution, G0/G1 (HepG2-DR cells [2]; [6]) [%] | Cell cycle distribution, G2/M (HepG2-DR cells [2]; [6]) [%] | Cell cycle distribution, S (HepG2-DR cells [2]; [6]) [%] | Cell cycle distribution, SubG1 (HepG2-DR cells [2]; [6]) [%] | Cell cycle distribution, G0/G1 (HepG2-DR cells [2]; [7]) [%] | Cell cycle distribution, G2/M (HepG2-DR cells [2]; [7]) [%] | Cell cycle distribution, S (HepG2-DR cells [2]; [7]) [%] | Cell cycle distribution, SubG1 (HepG2-DR cells [2]; [7]) [%] | Cell cycle distribution, G0/G1 (HepG2-DR cells [2]; [8]) [%] | Cell cycle distribution, G2/M (HepG2-DR cells [2]; [8]) [%] | Cell cycle distribution, S (HepG2-DR cells [2]; [8]) [%] | Cell cycle distribution, SubG1 (HepG2-DR cells [2]; [8]) [%] | Effect on cell cycle by itself (HepG2-DR cells [2]; 4 μM alone) | Cell cycle distribution, G0/G1 (HepG2-DR cells [2]; 4 μM alone) [%] | Cell cycle distribution, G2/M (HepG2-DR cells [2]; 4 μM alone) [%] | Cell cycle distribution, S (HepG2-DR cells [2]; 4 μM alone) [%] | Cell cycle distribution, SubG1 (HepG2-DR cells [2]; 4 μM alone) [%] | Concentration of test compound that reduced the effective doxorubicin concentration (G2/M arrest) from 50 to 1 μM (HepG2-DR cells [2]) [µM] | Reversing parameter: fold decrease of IC50 of Doxorubicin (HepG2-DR cells [3]; 1 μM test compound) | further results |
| --- | --- | --- | --- | --- | --- | --- | --- | --- | --- | --- | --- | --- | --- | --- | --- | --- | --- | --- | --- | --- | --- |
| COc1ccc(C(=O)O[C@@H]2c3c(ccc4ccc(=O)oc34)OC(C)(C)[C@@H]2OC(=O)c2ccc(OC)c(OC)c2)cc1OC (racemic) [cis-DMDBK, (±)-3′-O,4′-O-bis(3,4-dimethoxybenzoyl)-cis-khellactone] | no detectable alteration; also recorded: not observed | 35.82 ± 2.26 | 52.79 ± 5.64 | 6.44 ± 0.77 | 2.92 ± 1.09 | 13.52 ± 1.36 | 73.03 ± 1.89 | 5.85 ± 3.09 | 4.08 ± 0.81 | 3.74 ± 0.76 | 79.01 ± 6.01 | 6.86 ± 2.57 | 7.13 ± 6.57 | no effect | 52.36 ± 0.98 | 34.36 ± 0.42 | 7.66 ± 3.22 | 2.27 ± 0.49 | 2 | 6.2 ± 0.7 fold | Reversing parameter: fold decrease of IC50 of Puromycin (HepG2-DR cells [3]; 1 μM test compound): 4.6 ± 1.3 fold; Reversing parameter: fold decrease of IC50 of Vinblastine (HepG2-DR cells [3]; 1 μM test compound): 4.8 ± 4.1 fold; Reversing parameter: fold decrease of IC50 of Doxorubicin (HepG2-DR cells [3]; 2 μM test compound): 33.5 ± 7.5 fold; Reversing parameter: fold decrease of IC50 of Puromycin (HepG2-DR cells [3]; 2 μM test compound): 15.4 ± 4.6 fold; Reversing parameter: fold decrease of IC50 of Vinblastine (HepG2-DR cells [3]; 2 μM test compound): 12.4 ± 6.1 fold; Reversing parameter: fold decrease of IC50 of Doxorubicin (HepG2-DR cells [3]; 4 μM test compound): 117.1 ± 13.8 fold; Reversing parameter: fold decrease of IC50 of Puromycin (HepG2-DR cells [3]; 4 μM test compound): 74.6 ± 21.2 fold; Reversing parameter: fold decrease of IC50 of Vinblastine (HepG2-DR cells [3]; 4 μM test compound): 82.1 ± 13.1 fold; Reduction of drug resistance to the four anti-tumor drugs (HepG2-DR cells [3]; 4 μM test compound, range over vinblastine, doxorubicin, puromycin, paclitaxel): 62-117 times; Change in P-gp (MDR1) expression level (P-gp [4]): no detectable alteration; also recorded: not observed; Resistant ratio (KB V1 cells): 0.46; Resistant ratio (HepG2-DR cells [5]): 1.19 |
| COc1ccc(/C=C/C(=O)O[C@@H]2c3c(ccc4ccc(=O)oc34)OC(C)(C)[C@@H]2OC(=O)/C=C/c2ccc(OC)c(OC)c2)cc1OC (racemic) [cis-DMDCK, (±)-3′-O,4′-O-bis(3,4-dimethoxycinnamoyl)-cis-khellactone] | no detectable alteration; also recorded: not observed | 8.46 ± 1.63 | 79.79 ± 4.56 | 6.52 ± 1.76 | 4.35 ± 0.59 | 4.39 ± 1.50 | 81.42 ± 6.02 | 5.36 ± 3.13 | 5.59 ± 4.35 | 4.51 ± 0.45 | 77.12 ± 3.36 | 8.87 ± 4.04 | 6.40 ± 5.54 | no effect | 52.10 ± 0.61 | 33.20 ± 2.05 | 8.38 ± 4.24 | 2.25 ± 0.51 | 1 | 22 fold and 22.5 ± 9.1 fold | Reversing parameter: fold decrease of IC50 of Puromycin (HepG2-DR cells [3]; 1 μM test compound): 29 fold and 29.5 ± 13.0 fold; Reversing parameter: fold decrease of IC50 of Vinblastine (HepG2-DR cells [3]; 1 μM test compound): 45 fold and 45.7 ± 10.3 fold; Reversing parameter: fold decrease of IC50 of Doxorubicin (HepG2-DR cells [3]; 2 μM test compound): 107 fold and 107.9 ± 51.9 fold; Reversing parameter: fold decrease of IC50 of Puromycin (HepG2-DR cells [3]; 2 μM test compound): 111 fold and 111.1 ± 38.0 fold; Reversing parameter: fold decrease of IC50 of Vinblastine (HepG2-DR cells [3]; 2 μM test compound): 105 fold and 105.7 ± 21.2 fold; Reversing parameter: fold decrease of IC50 of Doxorubicin (HepG2-DR cells [3]; 4 μM test compound): 160 fold and 160.6 ± 12.6 fold; Reversing parameter: fold decrease of IC50 of Puromycin (HepG2-DR cells [3]; 4 μM test compound): 140 fold and 140.9 ± 65.1 fold; Reversing parameter: fold decrease of IC50 of Vinblastine (HepG2-DR cells [3]; 4 μM test compound): 130 fold and 129.9 ± 35.5 fold; Change in P-gp (MDR1) expression level (P-gp [4]): no detectable alteration; also recorded: not observed; Resistant ratio (KB V1 cells): 0.52; Resistant ratio (HepG2-DR cells [5]): 1.29 |
